Experimental data: US20220315539A1, “PHENAZINE DERIVATIVE AND USE THEREOF FOR THE TREATMENT OF CANCER” (CENTRE NATIONAL DE LA RECHERCHE SCIENTIFIQUE, priority 2019, published 2022)
Each block holds one molecule with its values, some of them ahead of it.

Columns and labels:
[1] = Fluorescence quantum yield in acetonitrile; assay type: physicochemical; conditions: for quantum yield of fluorescence ϕf: in MeCN, excitation at 483 nm, emission 637 nm (II) or 550 nm (II-H), reference tetraphenylporphyrin
Description: The inventors then set out to measure the value ϕf of the quantum yield of fluorescence of the following compound taken up in acetonitrile
To do this, the inventors measured the absorbance (relative intensity) as a function of the wavelength (in nm) in the presence of increasing doses of 1,8-[…] (DBU—0 to 2 equivalents).
Phenazinium II and its II-H conjugate base fluoresce in MeCN at neutral or basic pH. […] The reference used for the calculation of the fluorescence quantum yield is tetraphenylporphyrin in acetonitrile (ϕf=0.15).
Calculation of ϕ: It is determined by measuring the emission intensity of a solution of known concentration; the reference used to calculate the fluorescence quantum yield here is tetraphenylporphyrin in acetonitrile (ϕf=0.15).

MCF-7 tumor cells = experiment: Internalization kinetics with CLARIOstar plate reader; assay type: cell-based, human; conditions: MCF-7, in less than 24 hours
Experimental: Data are percent internalization (remaining fluorescence/total fluorescence) as a function of time in hours. Data are means of three experiments±standard deviation.
The internalization kinetics were carried out with a CLARIOstar reader in order to quantify the internalization of the compound in the MCF-7 tumor cells. The values, corresponding to the ratio of the residual fluorescence/the total fluorescence, are presented in the form of means of three experiments, ±the standard deviation.

[2] = Singlet oxygen (1O2) production quantum yield; assay type: physicochemical
Experimental: The absorption spectra were measured with a Perkin-Elmer double beam UV-visible spectrophotometer (Lambda EZ 210). The fluorescence spectrum was measured with a Fluorolog FL3-222 spectrofluorimeter (Horiba Jobin Yvon, Longjumeau, France) equipped with a 450 W xenon arc lamp, a thermostated compartment (25° C.), a photomultiplier UV-visible R928 ([…] Japan) and an InGaAs infrared detector cooled with liquid nitrogen (DSS-16A020L Electro-Optical System Inc, Phoenixville, Pa., USA). The excitation beam is separated by an SPEX dual grating monochromator (1200 lines/mm blazed at 330 nm). The fluorescence was measured by the UV-Visible detector via the SPEX double grating emission monochromator (1200 lines/mm blazed at 500 nm). The production of singlet oxygen was measured by the infrared detector via the SPEX double grating emission monochromator (600 lines/mm blazed at 1 μm). All spectra were measured using 4-sided quartz cuvettes. The absorbance values at the excitation wavelength of the references and samples have been adjusted to approximately 0.2.
By this method, the inventors were able to measure the quantum yield ϕΔ, which is 0.11 for the compound

MCF-7 cells [3] = experiment: Two-photon photodynamic therapy in vitro; assay type: cell-based, human; conditions: two-photon λirrad.=810 nm, irradiation 5 seconds, 100 nM
Experimental: As a control, untreated MCF7 cells without irradiation (A1), after irradiation at 790 nm (B1) or 810 nm (C1) are presented. […] Data are means of three experiments±standard deviation.
Two-photon photodynamic therapy (λirrad.=810 nm) has shown very encouraging results, since nearly 50% of tumor cells are killed without optimization (irradiation for only 5 seconds at a very low concentration of 100 nM of compound according to the invention).

MCF7 cells = experiment: One-photon photodynamic therapy in vitro, MTT viability; assay type: cell-based, human; conditions: MCF7, 100 nM, 5 h incubation, one-photon irradiation (λirrad.=514 nm), MTT two days later
Experimental: FIG. […] Two days later, the cells were subjected to a colorimetric cell viability assay (MTT). The experiment was carried out 3 times.
The inventors tested the effect of the compounds according to the invention in photodynamic therapy. MCF7 cells were incubated with the compound of formula
[…] Two days later, the cells were subjected to a colorimetric cell viability assay (MTT).

[4] = test system: healthy donor fibroblasts; experiment: Internalization by flow cytometry (red fluorescent cells); assay type: cell-based; conditions: 0.5 nM
Experimental: by healthy living cells of the fibroblast type. Cells were treated with 0.5 nM compound for 1, 3, 6 or 24 h and red fluorescence was measured by flow cytometry. […] The x-axis represents the incubation time in hours and the y-axis the percentage of red fluorescent cells.
(§1) To do this, MCF-7 cells or healthy donor fibroblasts have been treated or not with 0.5 nM of compound of formula
(§2) for 1, 3, 6 or 24 h, and cell fluorescence was assessed by flow cytometry by detecting the number of cells with red fluorescence.

MCF-7 cells [5] = experiment: as above; assay type: cell-based, human; conditions: MCF-7, 0.5 nM
Experimental: by live MCF-7 cancer cells. Cells were treated with 0.5 nM compound for 1, 3, 6 or 24 h and red fluorescence was measured by flow cytometry. […] The x-axis represents the incubation time in hours and the y-axis the percentage of red fluorescent cells.
as §1, §2

Structure (SMILES): CCCCCCCCNc1ccc2nc3cc(NC(C)(C)C)c(N)cc3[n+](CCCCCCCC)c2c1 [II]
- percent internalization (compound penetrating the cell) (MCF-7 tumor cells): 10%
- quantum yield of fluorescence ϕf [1]: 0.76
- brightness (B=ε×ϕ) ([1]; in acetonitrile): about 50000

Structure (SMILES): CCCCCCCCNc1ccc2nc3cc(NC(C)(C)C)c(N)cc3[n+](CCCCCCCC)c2c1 [drawing 45]
- tumor cells killed (MCF-7 cells [3]): ~50%
- tumor cells killed (MCF7 cells): 98%

Structure (SMILES): CCCCCCCCNc1ccc2nc3cc(NC(C)(C)C)c(N)cc3[n+](CCCCCCCC)c2c1 [drawing 47]
- cells that have internalized the compound ([4]; 6 h incubation): 18%
- cells that have internalized the compound ([4]; 24 h incubation): 24%
- cells that have internalized the compound (MCF-7 cells [5]; 6 h incubation): 46%
- cells that have internalized the compound (MCF-7 cells [5]; 24 h incubation): 90%

Next, values leading:

- quantum yield of fluorescence ϕf [1]: 0.08
Structure (SMILES): CCCCCCCCNc1ccc2nc3cc(NC(C)(C)C)c(=N)cc-3n(CCCCCCCC)c2c1 [II-H]

- singlet oxygen quantum yield ϕΔ [2]: 0.11
Structure (SMILES): CCCCCCCCNc1ccc2nc3cc(NC(C)(C)C)c(N)cc3[n+](CCCCCCCC)c2c1 [drawing 44]
